Entries after “also recorded” stand apart in the source; their conditions may differ.
Tests used:
ES-derived cells = test: Methylcellulose hematopoietic colony forming unit (CFU) assay of ES-derived cells exposed to wall shear stress or static culture; type: cell-based, mouse; conditions: 2 mM; for number of CFUs in ES-derived cultures in static conditions: static conditions (no shear stress), n=2
Procedure: Ainv15 CDX4-inducible mouse embryonic stem cells (iCDX4 ES) were cultured on mitomycin-treated Mouse Embryonic Fibroblasts (MEFs) (Chemicon, strain CF-1) and passaged every 2 to 3 days with 0.25% trypsin/EDTA as previously described. Wang et al., 102 P.N.A.S. 19081-86 (2005). To induce differentiation, ES cells were trypsinized, gently dispersed by repetitive pipetting and re-plated for 45 min at 37° C. for MEF depletion. Floating and loosely-adherent cells were gathered, checked for viability with trypan blue, and diluted in Embryoid Body (EB) differentiation media (Iscove's Modified Dulbecco's Medium [IMDM], 10% FCS [STEMCELL Tech., Vancouver, British Columbia, cat #06952], Penicillin 10 units/ml, Streptomycin 10 μg/ml, 1 mM L-Glutamine, Monothiolglycerol 3.8 nl/ml, Fe-saturated transferrin 0.2 mg/ml, Ascorbic Acid 0.5 mg/ml), to a final concentration of 6.7×10^3 cell/ml. EBs were cultured via the hanging drop method in 15 μl drops on 15 cm bacterial dishes. Typically, 100 plates of EBs were used per experiment. After 48 hr, EBs were pooled into calcium and magnesium containing warm PBS and collected by precipitation in 50 ml Falcon tubes. Pooled EBs were transferred to 10 cm tissue culture dishes containing 10 ml of EB differentiation media each, placed on an orbital shaker moving at 75 rev/min, and incubated for an additional 30 hr. Following this second culture phase, day 3.25-EBs were collected by precipitation, washed two times in 30 ml calcium-free PBS and trypsinized for 1 min in a 1:1 dilution of calcium-free PBS and 0.25% Trypsin-EDTA. Trypsinization was blocked by addition of 10 ml EB differentiation media.
More specifically, in the instant approach, plates were coated with a thick layer of 1% gelatin (DIFCO #214340, Becton Dickinson). After 12 hr, cells were washed three times with 10 ml of warm PBS with calcium and incubated for 45 min with EB differentiation media with or without 2 mM N(G)-nitro-L-arginine methyl ester (L-NAME) or 2 mM N(G)-nitro-D-arginine methyl ester (D-NAME) (Sigma-Aldrich). Cells to be moved to the dynamic flow system were incubated in 7 ml of media, and static controls incubated in 20 ml of media. Following 45 min incubation, cells were either moved to the Dynamic Flow System and exposed to shear stress or maintained in a standard cell culture incubator. The shear stress ramped up in a step-wise fashion from 0 dyne/cm^2 to 5 dyne/cm^2 over a period of 12 hr, in order to minimize cell loss during the transition from static to dynamic culture. Following the 12 hr ramping period, the cells were then exposed to a constant 5 dyne/cm^2 shear stress for 36 hr. […]
Methylcellulose assay was performed as previously described and scored on days 8 to 10 post-plating. […]

Runx1 = test: Quantitative real-time PCR gene expression analysis of Runx1 in ES-derived cells (CD41+/cKit+); type: cell-based, mouse; conditions: 2 mM; for Runx1 expression in static cultures of ES-derived cells: static conditions, n=2
Procedure: More specifically, in the instant approach, plates were coated with a thick layer of 1% gelatin (DIFCO #214340, Becton Dickinson). After 12 hr, cells were washed three times with 10 ml of warm PBS with calcium and incubated for 45 min with EB differentiation media with or without 2 mM N(G)-nitro-L-arginine methyl ester (L-NAME) or 2 mM N(G)-nitro-D-arginine methyl ester (D-NAME) (Sigma-Aldrich). Cells to be moved to the dynamic flow system were incubated in 7 ml of media, and static controls incubated in 20 ml of media. Following 45 min incubation, cells were either moved to the Dynamic Flow System and exposed to shear stress or maintained in a standard cell culture incubator. The shear stress ramped up in a step-wise fashion from 0 dyne/cm^2 to 5 dyne/cm^2 over a period of 12 hr, in order to minimize cell loss during the transition from static to dynamic culture. Following the 12 hr ramping period, the cells were then exposed to a constant 5 dyne/cm^2 shear stress for 36 hr. In cells exposed to shear stress, culture media with or without D-NAME or L-NAME were automatically exchanged and stored at 37° C. and 5% CO2. In static controls, culture medium was replaced after 24 hr and stored in 75 cm^2 flasks in a cell culture incubator. After 48 hr exposure to shear stress or growth under static conditions, cells were detached by 10 min incubation with a 1:1 dilution of Trypsin-Versene mixture (Cambrex, #17-161E) and Hank's Balanced Salt Solution.
Total RNA was extracted with a RNEASY® Micro Kit (QIAGEN, Inc., Valencia, Calif.), according to manufacturer's instructions. For RNA extraction from CD41^+/cKIT^+ cells, approximately 7,000 cells were sorted directly into 300 μl of Lysis Buffer. Reverse transcription of RNA was performed using MULTISCRIBE™ […] (Applied Biosystems, Foster City, Calif.), according to manufacturer's instructions. When processing FACS-sorted cells, RNA was eluted in 20 μl and all collected RNA was used in 50 μl reverse transcription reaction. […]

[1] = system: hematopoietic progenitors in the aorta-gonad-mesonephros (AGM) region; test: In vivo colony forming unit (CFU) assay of the AGM region after treating pregnant mice; parameters: species or system mouse; conditions: 300 mg/kg i.p. on E8.5 and 24 hr later, E10.5 embryos, versus D-NAME, p=0.0008
Procedure: Methylcellulose assay was performed as previously described and scored on days 8 to 10 post-plating. Wang et al., 102 P.N.A.S. 19081-86 (2005).
Day-7 post-coitum timed-pregnant Swiss-Webster mice were purchased from Taconic Farms. Noon on the day the copulation plug was found was designated 0.5 days. On day E8.5 (day 9 post coitum) mice were intraperitoneally injected with 300 mg/kg of L-NAME or D-NAME (SIGMA) dissolved in sterile, apyrogenic saline solution using a dose volume of 10 ml/kg. The injection was repeated after 24 hr. Exactly 24 hr after the second injection, mice were euthanized with CO2, embryos were harvested, and a conservative dissection of the AGM was performed. Embryo trunks were dissociated with 0.1% dispase and analyzed with the methylcellulose assay. Experiments were carried out with Institutional Animal Care and Use Committee approval from Harvard Medical School or Children's Hospital, Boston.

Row | SMILES | number of CFUs in ES-derived cultures in static conditions (ES-derived cells) | Runx1 expression in static cultures of ES-derived cells (Runx1) | shear stress-induced enrichment in CFUs (ES-derived cells; shear stress, compared with cells treated with D-NAME) | reduction of the WSS-mediated increase in hematopoietic colony forming units (ES-derived cells; wall shear stress 5 dyne/cm^2, n=3, p=0.04) [%] | number of CFUs per AGM (hematopoietic progenitors in the AGM region) [1] | WSS-mediated Runx1 upregulation (Runx1; CD41+/cKit+ cells exposed to shear stress, n=3)
1 | COC(=O)[C@H](N)CCCN=C(N)N[N+](=O)[O-] [D-NAME, N(G)-nitro-D-arginine methyl ester] | do not affect; also recorded: no effect | do not affect; also recorded: no effect | – | – | – | –
2 | COC(=O)[C@@H](N)CCCNC(=N)N[N+](=O)[O-] [L-NAME, N(G)-nitro-L-arginine methyl ester] | do not affect; also recorded: no effect | do not affect; also recorded: no effect | significant reduction | 50 | reduction; also recorded: marked decrease | does not affect; also recorded: did not affect

Reference: patent publication US20120195862A1, “BIO[…] OF HEMATOPOIESIS” (CHILDREN'S MEDICAL CENTER CORPORATION, priority 2009, published 2012)
